Key:
[1] = system: HTB-14 cells; test: Ligand-mediated immunostaining of cells via RGD-STZ and anti-STZ serum; format: cell-based; details: sequential: RGD-STZ, formaldehyde fixation, anti-STZ serum
Experimental: Cells could be stained through the ligand mediated association of antibody to the integrin molecule on the cell.
Ligand-mediated staining of HTB-14 cells was performed by incubations in sequential order. Cell were first treated with RGD-STZ then fixed with formaldehyde and stained using anti-STZ serum.
Cells were cultivated as described above. For staining, 6 well tissue culture plate containing chambered cover glasses was placed on ice and medium (DMEM, 10% FBS) replaced with same medium containing mixture of RGD-STZ and anti-STZ serum premixed at proportion giving highest signal in ELISA assay (˜10 μg of RGD-STZ in ml of rabbit serum). Mixture of RGD-STZ and serum was diluted in medium 30, 300 and 3000 times.
After 30 min of incubation specimens were washed with ice cold medium 3 times and incubated with Goat anti-Rabbit Alexa488 at concentration 10 μg/ml in DMEM. After 3 rinses with ice cold DMEM cells were fixed with 10% paraformaldehyde in PBS at room temperature, washed with PBS and mounted as above.
In some experiments cells were primed with RGD-STZ (50 μg/ml in DMEM) on ice for 20 min. then fixed with paraformaldehyde and stained further like described in first protocol.

[2] = biological target: T1, purified integrin αvβ3 (Homo sapiens, UniProt P05106+P06756); test: ELISA on purified receptor: RGD-STZ ligand mediated ternary complex formation with anti-STZ rabbit serum; format: binding
T1 construct: purchased Chemicon
T1 sequence (P06756 31-889 limits assumed): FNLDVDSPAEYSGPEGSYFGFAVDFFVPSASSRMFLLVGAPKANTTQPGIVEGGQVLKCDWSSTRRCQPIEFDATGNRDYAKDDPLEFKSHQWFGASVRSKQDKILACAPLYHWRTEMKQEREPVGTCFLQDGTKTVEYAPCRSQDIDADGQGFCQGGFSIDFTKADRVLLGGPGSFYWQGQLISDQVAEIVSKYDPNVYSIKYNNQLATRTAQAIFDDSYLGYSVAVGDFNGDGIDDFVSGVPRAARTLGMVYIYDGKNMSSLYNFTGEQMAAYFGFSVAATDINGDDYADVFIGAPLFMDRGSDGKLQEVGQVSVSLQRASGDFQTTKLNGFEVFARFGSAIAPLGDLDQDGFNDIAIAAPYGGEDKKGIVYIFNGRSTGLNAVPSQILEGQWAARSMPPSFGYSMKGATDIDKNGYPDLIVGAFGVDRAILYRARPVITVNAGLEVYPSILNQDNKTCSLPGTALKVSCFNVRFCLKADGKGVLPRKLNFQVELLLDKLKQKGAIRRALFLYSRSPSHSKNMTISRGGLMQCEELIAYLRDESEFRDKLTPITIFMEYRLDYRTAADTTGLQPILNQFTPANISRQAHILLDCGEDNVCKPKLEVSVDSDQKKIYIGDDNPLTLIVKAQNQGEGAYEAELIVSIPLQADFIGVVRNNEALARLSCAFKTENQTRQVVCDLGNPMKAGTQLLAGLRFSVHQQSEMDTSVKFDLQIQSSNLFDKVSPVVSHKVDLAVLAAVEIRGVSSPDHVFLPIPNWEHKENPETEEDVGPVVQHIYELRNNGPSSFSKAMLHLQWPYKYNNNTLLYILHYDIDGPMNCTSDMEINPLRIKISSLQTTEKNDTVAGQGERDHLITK
T1 sequence (P06756 891-1048 partner limits assumed): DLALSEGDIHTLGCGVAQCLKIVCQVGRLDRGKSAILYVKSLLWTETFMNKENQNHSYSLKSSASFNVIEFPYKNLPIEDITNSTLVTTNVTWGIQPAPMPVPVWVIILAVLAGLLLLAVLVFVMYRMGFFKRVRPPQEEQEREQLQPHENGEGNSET
T1 sequence (P05106 27-788): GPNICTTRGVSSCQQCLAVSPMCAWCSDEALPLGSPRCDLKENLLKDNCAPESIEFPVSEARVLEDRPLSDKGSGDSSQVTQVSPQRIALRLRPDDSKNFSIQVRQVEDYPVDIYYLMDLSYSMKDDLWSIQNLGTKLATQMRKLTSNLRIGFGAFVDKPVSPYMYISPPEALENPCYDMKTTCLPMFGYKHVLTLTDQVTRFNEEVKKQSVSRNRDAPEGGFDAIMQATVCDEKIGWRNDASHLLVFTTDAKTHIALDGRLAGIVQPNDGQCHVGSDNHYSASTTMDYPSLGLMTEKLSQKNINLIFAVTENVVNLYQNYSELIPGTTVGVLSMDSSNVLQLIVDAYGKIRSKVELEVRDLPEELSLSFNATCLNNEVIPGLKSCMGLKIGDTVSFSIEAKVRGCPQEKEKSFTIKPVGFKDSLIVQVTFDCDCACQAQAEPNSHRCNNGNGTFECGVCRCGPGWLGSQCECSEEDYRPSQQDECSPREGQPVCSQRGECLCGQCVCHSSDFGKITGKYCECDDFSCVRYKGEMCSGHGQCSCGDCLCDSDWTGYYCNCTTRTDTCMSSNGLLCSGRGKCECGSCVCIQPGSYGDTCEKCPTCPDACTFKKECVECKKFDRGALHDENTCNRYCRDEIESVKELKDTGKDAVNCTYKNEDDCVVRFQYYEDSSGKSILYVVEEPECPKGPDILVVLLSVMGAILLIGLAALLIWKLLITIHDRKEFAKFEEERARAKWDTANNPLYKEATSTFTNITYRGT
Experimental: Indirect recognition of integrin by streptavidin mediated by RGD-biotin was used as positive control.
96 well polystyrene plates (Nunc) were coated with 1 μg/ml of purified integrin αvβ3 (Chemicon) in buffer: 50 mM Hepes , 0.1 M NaCl, 2 mM CaCl2, 1 mM MnCl2, 1 mM MgCl2 pH 7.5. Blocking was performed with 3% BSA in the same buffer for at least 1 hr.
Ternary complex formation was obtained in concurrent or sequential mode. For sequential mode experiment the ELISA plate was incubated with RGD-STZ (root of ten dilutions starting from 10 μg/ml); 2 hr, room temperature, followed by anti-STZ rabbit serum diluted 3000 times, 1 hr RT. In the concurrent mode the incubation mixture contained both RGD-STZ and anti-STZ rabbit serum. Serum concentration was kept constant (1/3000) while RGD-STZ concentration was varied as before; incubation time 2 hr. The formed complex was detected with goat anti-Rabbit HRP conjugate. Dilutions were made in same buffer supplemented with 0.05% Tween and 0.1% BSA. BSA was not included in the washing steps.
Solid-phase assays were conducted in two different formats: concurrent and sequential incubation. In the concurrent format, RGD-STZ was premixed with rabbit serum 1E6 and incubated on the plate, which was pre-coated with integrin αvβ3. In the sequential format, RGD-STZ was incubated on the integrin coated plate, washed and rabbit serum 1E6 was applied. In both formats, the signal was developed by detection of rabbit antibodies with anti-rabbit HRP antibody conjugate. […] This range of IBAIT concentrations in which a stable ternary complex is produced constitutes a therapeutic window, where the IBAIT can be applied for targeting immunoglobulins to malignancies.
That is, the sequential addition of antibody results in the continued formation of stable ternary complexes until receptor saturation plateaus.

## cyclo(-R-G-D-f-K(STZ)) [RGD-STZ]
[1]
  ligand-mediated staining pattern of cells: distinct pattern of dots on the plasma membrane as well as general fluorescent illumination of cells
[2]; concurrent format: RGD-STZ premixed with rabbit serum, incubated on integrin coated plate, FIG. 5A
  concentration dependence of ELISA signal (ternary complex formation), concurrent incubation: bell-shaped concentration dependencies
[2]; plates coated with purified αvβ3 integrin, anti-STZ rabbit serum, goat anti-Rabbit HRP detection
  indirect recognition of the integrin by anti-STZ antibodies mediated by the ligand: excellent indirect recognition
[2]; premixed RGD-STZ and anti-STZ serum
  proportion of RGD-STZ and anti-STZ serum giving highest signal in ELISA assay: ~10 μg of RGD-STZ in ml of rabbit serum
[2]; sequential format: RGD-STZ incubated on integrin coated plate, washed, then rabbit serum, FIG. 5B
  concentration dependence of ELISA signal (ternary complex formation), sequential incubation: signal that steadily increased with increasing RGD-STZ (IBAIT) concentration

— patent US20070134259A1, “Methods and compositions for pharmacologially controlled targeted immunotherapy” (priority 2005, published 2007)
